Assays:
[1] = Partition coefficient (logD7.4); settings: octanol/water, pH 7.4
[2] = target: 5-hydroxytryptamine receptor 1D (Sus scrofa, UniProt P79400); assay: Displacement of radioligand [3H]5-HT binding to 5-hydroxytryptamine 1D receptor in pig caudate membrane; assay type: cell membranes
[3] = target: Serotonin 2 (5-HT2) receptor (Rattus norvegicus, UniProt P30994+P08909+P14842); assay: isplacement of [3H]DOB from rat cortex homogenate 5-hydroxytryptamine 2 receptor
[4] = target: T1, Serotonin 3 (5-HT3) receptor (Rattus norvegicus, UniProt P35563+Q9JJ16); assay: Displacement of [3H]-Q-ICS 205-930 from rat cortex homogenate 5-hydroxytryptamine 3 receptor
T1 sequence (P35563 whole entry): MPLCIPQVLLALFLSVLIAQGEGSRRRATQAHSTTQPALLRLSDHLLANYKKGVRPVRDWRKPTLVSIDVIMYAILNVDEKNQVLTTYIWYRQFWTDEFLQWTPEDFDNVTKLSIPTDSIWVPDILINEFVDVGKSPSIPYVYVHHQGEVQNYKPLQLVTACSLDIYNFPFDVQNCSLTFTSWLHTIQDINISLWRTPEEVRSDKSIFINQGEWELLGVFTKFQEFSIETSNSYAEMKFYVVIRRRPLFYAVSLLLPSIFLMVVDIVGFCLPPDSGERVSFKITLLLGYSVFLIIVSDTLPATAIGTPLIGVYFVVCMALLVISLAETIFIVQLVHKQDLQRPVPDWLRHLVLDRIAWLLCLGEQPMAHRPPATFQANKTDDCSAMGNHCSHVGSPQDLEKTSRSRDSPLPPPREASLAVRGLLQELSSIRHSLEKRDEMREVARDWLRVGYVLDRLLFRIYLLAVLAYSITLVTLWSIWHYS
T1 sequence (Q9JJ16 whole entry): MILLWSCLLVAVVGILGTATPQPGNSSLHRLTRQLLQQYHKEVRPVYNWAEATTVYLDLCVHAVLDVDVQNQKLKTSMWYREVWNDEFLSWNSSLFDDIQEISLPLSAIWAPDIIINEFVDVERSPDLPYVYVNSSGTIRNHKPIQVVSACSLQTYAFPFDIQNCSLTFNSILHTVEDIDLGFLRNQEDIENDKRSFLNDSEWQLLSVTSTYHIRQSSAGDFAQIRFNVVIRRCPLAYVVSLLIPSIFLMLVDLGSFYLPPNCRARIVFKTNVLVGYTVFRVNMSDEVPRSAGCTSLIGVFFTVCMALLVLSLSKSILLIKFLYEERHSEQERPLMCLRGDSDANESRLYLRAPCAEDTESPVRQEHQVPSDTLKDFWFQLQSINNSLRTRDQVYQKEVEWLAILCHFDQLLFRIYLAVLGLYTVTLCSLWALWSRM

[5] = organism: Oryctolagus cuniculus; assay: Relative maximum is the relative efficacy for serotonergic activity on rabbit saphenous vein with respect to 1 uM 5-HT; assay type: functional
[6] = organism: Oryctolagus cuniculus; assay: Serotonergic activity was assessed in vitro on the New Zealand white rabbit saphenous vein preparation; assay type: functional
[7] = organism: Oryctolagus cuniculus; assay: Relative maximum is the relative efficacy with respect to 1 uM 5-HT; assay type: functional

Sequence of 5-hydroxytryptamine receptor 1D (P79400 whole entry): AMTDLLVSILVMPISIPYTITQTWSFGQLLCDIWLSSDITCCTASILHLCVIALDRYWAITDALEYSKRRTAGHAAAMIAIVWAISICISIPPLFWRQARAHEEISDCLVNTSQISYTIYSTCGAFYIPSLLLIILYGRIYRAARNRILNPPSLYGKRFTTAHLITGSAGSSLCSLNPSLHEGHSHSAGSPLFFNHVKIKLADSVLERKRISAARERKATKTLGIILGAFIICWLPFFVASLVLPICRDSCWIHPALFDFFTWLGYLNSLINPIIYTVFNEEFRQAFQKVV

SMILES	logD [1]	IC50 [2] [nM]	pIC50 [3]	IC50 [4] [nM]	also measured
CNS(=O)(=O)Cc1ccc2[nH]cc(CCN(C)C)c2c1	-1.17	–	–	–	–
NCCc1c[nH]c2ccc(C(N)=O)cc12	–	3.98	–	–	–
CN(C)CCc1c[nH]c2ccc(-c3nc(Cc4ccc(NS(C)(=O)=O)cc4)no3)cc12	1.25	1.26	–	–	–
NCCc1c[nH]c2ccc(-c3nc(Cc4ccccc4)no3)cc12	1.32	6.31	5.9	> 10000	–
CNC(=O)c1ccc(-c2noc(-c3ccc4[nH]cc(CCN)c4c3)n2)cc1	–	0.794	–	–	–
Cc1noc(CCCc2ccc3[nH]cc(CCN)c3c2)n1	–	5.01	–	–	–
CCc1noc(-c2ccc3[nH]cc(CCN)c3c2)n1	0.13	12.6	–	–	–
CC(=O)Nc1ccc(Cc2noc(-c3ccc4[nH]cc(CCN)c4c3)n2)cc1	0.48	0.501	6.4	> 10000	Relative maximum [5]: 1; EC50 [6]: 12.6 nM
NCCc1c[nH]c2ccc(-c3nc(N)no3)cc12	-0.72	50.1	–	–	–
NCCc1c[nH]c2ccc(Cc3nc(Cc4ccccc4)no3)cc12	0.42	31.6	–	–	–
COc1ccccc1Cc1noc(-c2ccc3[nH]cc(CCN)c3c2)n1	1.38	15.8	–	–	–
NCCc1c[nH]c2ccc(Cc3nc(-c4ccccc4)no3)cc12	–	20	–	–	–
CN(C)CCc1c[nH]c2ccc(CCc3nc(N)no3)cc12	–	12.6	6.7	6310	EC50 [6]: 200 nM
CN(C)CCc1c[nH]c2ccc(-c3nc(Cc4ccccc4)no3)cc12	–	6.31	–	–	–
CS(=O)(=O)Nc1ccc(Cc2noc(Cc3ccc4[nH]cc(CCN)c4c3)n2)cc1	-0.54	3.16	–	–	–
CN(C)CCc1c[nH]c2ccc(-c3nc(N)no3)cc12	0.2	79.4	–	–	–
Cc1noc(-c2ccc3[nH]cc(CCN)c3c2)n1	-0.37	10	5.8	> 10000	Relative maximum [5]: 1; EC50 [6]: 251 nM
CC(=O)NCc1noc(-c2ccc3[nH]cc(CCN)c3c2)n1	–	20	–	–	–
NCCc1c[nH]c2ccc(Cc3nc(N)no3)cc12	–	20	6.1	> 10000	EC50 [6]: 158 nM
CN(C)CCc1c[nH]c2ccc(Cc3nc(N)ns3)cc12	–	2	6.9	2400	Relative maximum [5]: 1.1

SMILES	logD [1]	IC50 [2] [nM]	pIC50 [3]	IC50 [4] [nM]	also measured
NCCc1c[nH]c2ccc(CCCc3nc(Cc4ccccc4)no3)cc12	–	1.58	–	–	–
CNC(=O)c1ccc(-c2noc(Cc3ccc4[nH]cc(CCN(C)C)c4c3)n2)cc1	1.45	2	–	–	–
NCCc1c[nH]c2ccc(-c3nc(C4CC4)no3)cc12	0.6	7.94	5.6	> 10000	–
CN(C)CCc1c[nH]c2ccc(CCCc3nc(Cc4ccccc4)no3)cc12	–	12.6	–	–	–
CN(C)CCc1c[nH]c2ccc(Cc3nc(-c4ccc(NS(C)(=O)=O)cc4)no3)cc12	–	10	–	–	–
Cc1cnc(-c2ccc3[nH]cc(CCN(C)C)c3c2)o1	–	7.94	–	–	–
NCCc1c[nH]c2ccc(CCc3nc(N)no3)cc12	-1.51	10	–	–	–
CC(=O)Nc1ccc(Cc2noc(Cc3ccc4[nH]cc(CCN)c4c3)n2)cc1	-0.36	2.51	–	–	–
CN(C)CCc1c[nH]c2ccc(Cc3nc(N)no3)cc12	–	25.1	6.4	2510	–
Cc1noc(Cc2ccc3[nH]cc(CCN(C)C)c3c2)n1	–	50.1	5.6	3980	–
COc1ccc(Cc2noc(-c3ccc4[nH]cc(CCN)c4c3)n2)cc1	–	0.794	6	> 10000	–
CNS(=O)(=O)c1ccc(Cc2noc(-c3ccc4[nH]cc(CCN)c4c3)n2)cc1	0.25	0.251	–	–	Relative maximum [5]: 0.9; EC50 [6]: 12.6 nM
NCCc1c[nH]c2ccc(CCc3nc(Cc4ccccc4)no3)cc12	–	5.01	6.6	> 10000	–
Cc1noc(Cc2ccc3[nH]cc(CCN)c3c2)n1	-1.7	31.6	5.5	> 10000	–
CN(C)CCc1c[nH]c2ccc(Cc3nc(Cc4ccc(NS(C)(=O)=O)cc4)no3)cc12	0.5	31.6	–	–	–
COc1cccc(Cc2noc(-c3ccc4[nH]cc(CCN)c4c3)n2)c1	–	1.26	–	–	–
NCCc1c[nH]c2ccc(-c3nc(-c4ccccc4)no3)cc12	–	79.4	–	–	–
CN(C)CCc1c[nH]c2ccc(CCc3nc(Cc4ccccc4)no3)cc12	–	12.6	–	–	–
CS(=O)(=O)Nc1ccc(Cc2noc(-c3ccc4[nH]cc(CCN)c4c3)n2)cc1 [L-694247]	0.25	0.316	6.5	> 10000	Relative maximum [5]: 1; EC50 [6]: 15.8 nM
NCCc1c[nH]c2ccc(O)cc12 [SEROTONIN]	–	10	–	–	Relative maximum [7]: 1

From ChEMBL document CHEMBL1126700, “Synthesis and serotonergic activity of 5-(oxadiazolyl)tryptamines: potent agonists for 5-HT1D receptors” (J Med Chem, 1993)
